Results published in patent US20060029555A1, “Compositions and methods for prevention of photoaging” (priority 2002, published 2006).

Test system: human elastin promoter
Assay: Transgenic mouse model of photoaging: human elastin promoter/CAT reporter activity after solar simulating radiation
Type: in vivo, transgenic mice
Conditions: topical application to backs about fifteen minutes before 20 MEDs of SSR, three consecutive days; CAT activity 24 hours after third phototreatment, compared with vehicle alone
Protocol: These mice express human elastin promoter activity in a tissue-specific and developmentally regulated manner. […] In addition, quantitative data can be obtained after only a single exposure to ultraviolet radiation. […] The transgenic mouse is then exposed to solar radiation and human elastin promoter activity in the mouse is determined.
Approximately fifteen minutes after topical application, the mice are exposed to 20 human minimal erythema doses (MEDs) of solar simulating radiation (SSR). […] This procedure is repeated over three consecutive days.
Mice are then sacrificed and skin harvested for determination of CAT activity 24 hours after the third phototreatment. […]
To measure the expression of the human elastin promoter/CAT reporter gene construct in the skin of transgenic mice and in fibroblast cultures established from these animals, CAT activity is determined. […] The homogenates are centrifuged at 10,000 ×g for 15 minutes at 4° C. and the protein concentration in the supernatant determined by a commercial protein assay kit (Bio-Rad Laboratories, Richmond, Calif.). […] The acetylated and non-acetylated forms of radioactive chloramphenicol are separated by thin-layer chromatography and CAT activity is determined by the radioactivity in the acetylated forms as a percent of the total radioactivity in each sample.

Cn1c(=O)c2c(ncn2C)n(C)c1=O [caffeine]
protection against photoaging and other sun-damage (human elastin promoter activity, CAT activity in skin): provides protection against photoaging and other sun-damage such as sunburn
